Consider ten compounds from patent publication US20220112175A1, “PYRIDAZINES HERBICIDAL COMPOUNDS” (SYNGENTA CROP PROTECTION AG, priority 2019, published 2022).

Each structure is given as a SMILES string.

Holding throughout (experiment): Post-emergence efficacy, glasshouse pot test
Format in all cases: in vivo

One test relates to Lolium perenne (LOLPE). The following applies: 312 h, Application rate 500 g/Ha, post-emergence spray, evaluated after 13 days, read-out: Post-emergence efficacy LOLPE (100=total damage to plant; 0=no damage to plant). As to the method: (§1) Seeds of a variety of test species were sown in standard soil in pots. After cultivation for 14 days (post-emergence) under controlled conditions in a glasshouse (at 24/16° C., day/night; 14 hours light; 65% humidity), the plants were sprayed with an aqueous spray solution derived from the dissolution of the technical active ingredient formula (I) in a small amount of acetone and a special solvent and emulsifier mixture referred to as IF50 (11.12% Emulsogen EL360 TM+44.44% N-methylpyrrolidone+44.44% Dowanol DPM glycol ether), to create a 50 g/l solution which was then diluted to required concentration using 0.25% or 1% Empicol ESC70 (Sodium lauryl ether sulphate)+1% ammonium sulphate as diluent.
(§2) The test plants were then grown in a glasshouse under controlled conditions (at 24/16° C., day/night; 14 hours light; 65% humidity) and watered twice daily. After 13 days the test was evaluated (100=total damage to plant; 0=no damage to plant).
(§3) Ipomoea hederacea (IPOHE), Euphorbia heterophylla (EPHHL), Chenopodium album (CHEAL), Amaranthus palmeri (AMAPA), Lolium perenne (LOLPE), Digitaria sanguinalis (DIGSA), Eleusine indica (ELEIN), Echinochloa crus-galli (ECHCG), Setaria faberi (SETFA)

Test [1] has as its system Ipomoea hederacea (IPOHE). Particulars: 312 h, Application rate 500 g/Ha, post-emergence spray, evaluated after 13 days, read-out: Post-emergence efficacy IPOHE (100=total damage to plant; 0=no damage to plant). As to the method: as §1, §2, §3
Test [2] has as its system Chenopodium album (CHEAL). The following applies: 312 h, Application rate 500 g/Ha, post-emergence spray, evaluated after 13 days, read-out: Post-emergence efficacy CHEAL (100=total damage to plant; 0=no damage to plant). As to the method:
as §1, §2, §3

For test [3], the system named is Euphorbia heterophylla (EPHHL). Particulars: 312 h, Application rate 500 g/Ha, post-emergence spray, evaluated after 13 days, read-out: Post-emergence efficacy EPHHL (100=total damage to plant; 0=no damage to plant). The protocol: as §1, §2, §3
Test [4] concerns Digitaria sanguinalis (DIGSA). The following applies: 312 h, Application rate 500 g/Ha, post-emergence spray, evaluated after 13 days, read-out: Post-emergence efficacy DIGSA (100=total damage to plant; 0=no damage to plant). As to the method:
as §1, §2, §3

Test [5] concerns Echinochloa crus-galli (ECHCG). Particulars: 312 h, Application rate 500 g/Ha, post-emergence spray, evaluated after 13 days, read-out: Post-emergence efficacy ECHCG (100=total damage to plant; 0=no damage to plant). As to the method:
as §1, §2, §3

The next test deals with Eleusine indica (ELEIN). Particulars: 312 h, Application rate 500 g/Ha, post-emergence spray, evaluated after 13 days, read-out: Post-emergence efficacy ELEIN (100=total damage to plant; 0=no damage to plant). As to the method:
as §1, §2, §3

Test [6] deals with Amaranthus palmeri (AMAPA). The following applies: 312 h, Application rate 500 g/Ha, post-emergence spray, evaluated after 13 days, read-out: Post-emergence efficacy AMAPA (100=total damage to plant; 0=no damage to plant). As to the method:
as §1, §2, §3

For another test, the system named is Setaria faberi (SETFA). The following applies: 312 h, Application rate 500 g/Ha, post-emergence spray, evaluated after 13 days, read-out: Post-emergence efficacy SETFA (100=total damage to plant; 0=no damage to plant). The protocol: as §1, §2, §3

Consider `O=C(O)CNC(=O)C[n+]1ccc(-c2ncsn2)cn1` [Compound A23], for which the pest or weed control at 500 g/ha in the test on Lolium perenne (LOLPE) is 50%; in test [1], 90%; in test [2] it was 100%; in test [3], 90%; in test [4], 40%; in test [5], 50%. Moreover, the pest or weed control at 500 g/ha came out at 70% in the test with Eleusine indica (ELEIN), 100% in [6] and 80% with Setaria faberi (SETFA).

Regarding `CC(C)(NC(=O)C[n+]1ccc(-c2nccs2)cn1)C(=O)O` [Compound A9], the pest or weed control at 500 g/ha was determined as 30% in the test on Lolium perenne (LOLPE); 20% in [1]; 50% in test [2]; 80% in test [3]; 40% in test [4]; 30% in test [5]. Moreover, the pest or weed control at 500 g/ha in the test on Eleusine indica (ELEIN) turned out to be 70%; in [6], 100%; with Setaria faberi (SETFA) it was 40%.

As for `O=C(O)CNS(=O)(=O)CC[n+]1ccc(-c2nccs2)cn1` [Compound A17, 2-[2-(4-thiazol-2-ylpyridazin-1-ium-1-yl)ethylsulfonylamino]acetic acid 2,2,2-trifluoroacetate], the pest or weed control at 500 g/ha in the test on Lolium perenne (LOLPE) was found to be 0%; in [1], 10%; in test [2] it was 30%; in test [3], 20%; in [4], 80%; in test [5], 20%. In addition, the pest or weed control at 500 g/ha in the test with Eleusine indica (ELEIN) worked out at 10%; in test [6], 0%; with Setaria faberi (SETFA) it was 20%.

`CC(NS(=O)(=O)CC[n+]1ccc(-c2ncsn2)cn1)C(=O)O` (stereo not drawn) [Compound A22]: the pest or weed control at 500 g/ha in the test with Lolium perenne (LOLPE) turned out to be 60%; in test [1], 50%; in [2], 50%; in test [3], 20%; in test [4], 100%; in [5], 80%. Further, the pest or weed control at 500 g/ha (with Eleusine indica (ELEIN); in test [6]; with Setaria faberi (SETFA)) was 100% in each case.

As for `O=C(O)CNC(=O)CC[n+]1ccc(-c2ncco2)cn1` [Compound A13], the pest or weed control at 500 g/ha with Lolium perenne (LOLPE) turned out to be 60%; in test [1], 60%; in [2], 100%; in test [3], 90%; in [4], 100%; in [5], 100%. Besides, the pest or weed control at 500 g/ha came out at 90% in the test with Eleusine indica (ELEIN), 100% in test [6] and 100% with Setaria faberi (SETFA).

For the compound `CN(CCS(=O)(=O)[O-])C(=O)C[n+]1ccc(-c2ncn(C)n2)cn1` [Compound A6], the pest or weed control at 500 g/ha in the test on Lolium perenne (LOLPE) was found to be 20%; in [1], 30%; in [2], 80%; in test [3], 70%; in test [4], 90%; in test [5] it was 90%. The pest or weed control at 500 g/ha with Eleusine indica (ELEIN) is 80%; in [6], 90%; in the test with Setaria faberi (SETFA), 80%.

Turning to `CC(C)(NC(=O)C[n+]1ccc(-c2ncsn2)cn1)C(=O)O` [Compound A21], the pest or weed control at 500 g/ha in the test on Lolium perenne (LOLPE) turned out to be 40%; in test [1] it was 70%; in test [2], 90%; in [3] it was 80%; in test [4] it was 30%; in test [5], 30%. Further, the pest or weed control at 500 g/ha worked out at 40% with Eleusine indica (ELEIN), 100% in [6] and 100% with Setaria faberi (SETFA).

For `Cn1cnc(-c2cc[n+](CSCCC(=O)O)nc2)n1` [Compound A7], the pest or weed control at 500 g/ha with Lolium perenne (LOLPE) stood at 70%; in [1], 20%; in [2], 90%; in test [3], 70%; in [4], 100%; in test [5] it was 100%. The pest or weed control at 500 g/ha with Eleusine indica (ELEIN) came to 90%; in test [6], 100%; in the test with Setaria faberi (SETFA), 100%.

For the compound `CN(CC(=O)O)C(=O)C[n+]1ccc(-c2nccs2)cn1` [Compound A11], the pest or weed control at 500 g/ha amounted to 30% in the test on Lolium perenne (LOLPE); 20% in [1]; 20% in test [2]; 90% in [3]; 40% in test [4]; 50% in test [5]. The values for the pest or weed control at 500 g/ha (with Eleusine indica (ELEIN); in [6]; in the test with Setaria faberi (SETFA)) were 50%, 90% and 50%, respectively.

As for `CC(NC(=O)CC[n+]1ccc(-c2nccs2)cn1)C(=O)O` (stereo not drawn) [Compound A16], the pest or weed control at 500 g/ha in the test on Lolium perenne (LOLPE) worked out at 60%; in test [1], 20%; in test [2] it was 90%; in test [3], 40%; in [4], 100%; in test [5] it was 100%. Also, the pest or weed control at 500 g/ha (with Eleusine indica (ELEIN); in test [6]; with Setaria faberi (SETFA)) was 100% each time.
